# Results as given in patent publication US11447466B2, “Substituted indole compounds useful as inhibitors of TLR7/8/9” (BRISTOL-MYERS SQUIBB COMPANY, priority 2017, dated 2022).
# pIC50: −log10 of the molar value.
# Columns and labels:
# Format in all cases: cell-based
# human TLR7 = target: T1, human TLR7 (Homo sapiens, UniProt Q9NYK1); test: TLR7 inhibition reporter assay (HEK-Blue SEAP reporter, gardiquimod stimulation); conditions: HEK-Blue cells overexpressing human TLR7, SEAP reporter, gardiquimod 7.5 μM, 22 hour incubation
# T1 construct: host or cells: HEK-Blue cells
# T1 sequence (Q9NYK1 27-1049): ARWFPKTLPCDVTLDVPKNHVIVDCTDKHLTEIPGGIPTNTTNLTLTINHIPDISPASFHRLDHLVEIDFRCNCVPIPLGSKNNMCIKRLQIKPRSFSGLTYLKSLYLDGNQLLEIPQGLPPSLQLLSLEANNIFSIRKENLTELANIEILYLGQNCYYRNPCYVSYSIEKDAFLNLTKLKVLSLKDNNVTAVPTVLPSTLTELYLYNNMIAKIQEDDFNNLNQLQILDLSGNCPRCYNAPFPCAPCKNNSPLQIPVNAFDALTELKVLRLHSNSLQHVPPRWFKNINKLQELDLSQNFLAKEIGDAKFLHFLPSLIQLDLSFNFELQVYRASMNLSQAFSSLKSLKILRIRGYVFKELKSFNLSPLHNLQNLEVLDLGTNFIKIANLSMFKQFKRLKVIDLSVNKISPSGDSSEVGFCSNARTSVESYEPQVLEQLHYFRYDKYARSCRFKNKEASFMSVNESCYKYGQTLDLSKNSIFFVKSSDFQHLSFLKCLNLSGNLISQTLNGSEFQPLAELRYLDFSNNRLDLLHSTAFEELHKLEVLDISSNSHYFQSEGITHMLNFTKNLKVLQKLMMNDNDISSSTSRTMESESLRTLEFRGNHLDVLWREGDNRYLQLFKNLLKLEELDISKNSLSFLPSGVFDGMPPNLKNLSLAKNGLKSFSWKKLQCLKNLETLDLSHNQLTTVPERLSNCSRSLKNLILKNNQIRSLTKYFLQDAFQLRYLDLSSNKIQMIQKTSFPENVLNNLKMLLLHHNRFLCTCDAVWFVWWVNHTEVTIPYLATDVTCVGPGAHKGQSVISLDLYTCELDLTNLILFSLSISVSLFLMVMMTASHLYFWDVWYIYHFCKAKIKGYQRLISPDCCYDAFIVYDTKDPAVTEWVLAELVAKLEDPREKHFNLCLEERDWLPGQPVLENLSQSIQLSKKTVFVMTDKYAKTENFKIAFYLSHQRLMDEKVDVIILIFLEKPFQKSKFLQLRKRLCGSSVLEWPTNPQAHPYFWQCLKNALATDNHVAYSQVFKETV
# Summary of the method: (§1)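 Dose–response from 0.05 nM to 50 μM was run in HEK-Blue human TLR7, TLR8 and TLR9 reporter cells. After 30 min at room temperature with compound, ligand was added (TLR7 gardiquimod 7.5 μM; TLR8 R848 15.9 μM; TLR9 ODN2006 5 nM) and SEAP measured next day, at 22 h.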
# human TLR8 = target: T2, human TLR8 (Homo sapiens, UniProt Q9NR97); test: TLR8 inhibition reporter assay (HEK-Blue SEAP reporter, R848 stimulation); conditions: HEK-Blue cells overexpressing human TLR8, SEAP reporter, R848 15.9 μM, 22 hour incubation
# T2 construct: host or cells: HEK-Blue cells
# T2 sequence (Q9NR97 27-1041): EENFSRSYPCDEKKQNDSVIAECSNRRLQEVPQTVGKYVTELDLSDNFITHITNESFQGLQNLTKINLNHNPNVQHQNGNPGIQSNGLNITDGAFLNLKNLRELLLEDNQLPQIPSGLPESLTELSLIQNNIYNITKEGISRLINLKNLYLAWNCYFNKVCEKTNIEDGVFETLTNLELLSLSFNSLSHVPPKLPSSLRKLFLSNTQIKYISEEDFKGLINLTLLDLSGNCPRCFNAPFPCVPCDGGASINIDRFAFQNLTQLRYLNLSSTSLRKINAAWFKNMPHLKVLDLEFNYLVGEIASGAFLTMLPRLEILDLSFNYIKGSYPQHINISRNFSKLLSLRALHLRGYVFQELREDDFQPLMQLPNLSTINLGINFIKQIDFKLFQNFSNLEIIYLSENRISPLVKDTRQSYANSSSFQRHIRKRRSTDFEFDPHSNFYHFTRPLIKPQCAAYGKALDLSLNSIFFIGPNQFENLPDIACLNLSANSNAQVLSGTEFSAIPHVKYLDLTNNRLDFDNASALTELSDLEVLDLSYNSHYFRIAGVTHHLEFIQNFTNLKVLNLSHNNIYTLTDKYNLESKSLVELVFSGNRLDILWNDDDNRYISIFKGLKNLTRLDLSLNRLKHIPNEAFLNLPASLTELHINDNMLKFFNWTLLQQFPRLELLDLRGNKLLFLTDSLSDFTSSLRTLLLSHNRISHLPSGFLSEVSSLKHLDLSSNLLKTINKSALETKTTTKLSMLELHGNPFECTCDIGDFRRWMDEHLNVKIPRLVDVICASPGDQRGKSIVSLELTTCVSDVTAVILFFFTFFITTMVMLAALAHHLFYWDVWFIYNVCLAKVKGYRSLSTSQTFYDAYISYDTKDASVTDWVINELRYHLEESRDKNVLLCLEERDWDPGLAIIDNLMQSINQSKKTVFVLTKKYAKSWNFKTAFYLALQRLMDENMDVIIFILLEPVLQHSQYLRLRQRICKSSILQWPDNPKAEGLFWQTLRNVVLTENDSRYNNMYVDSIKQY
# Summary of the method: as §1
# human TLR9 = target: T3, human TLR9 (Homo sapiens, UniProt Q9NR96); test: TLR9 inhibition reporter assay (HEK-Blue SEAP reporter, ODN2006 stimulation); conditions: HEK-Blue cells overexpressing human TLR9, SEAP reporter, ODN2006 5 nM, 22 hour incubation
# T3 construct: host or cells: HEK-Blue cells
# T3 sequence (Q9NR96 26-1032): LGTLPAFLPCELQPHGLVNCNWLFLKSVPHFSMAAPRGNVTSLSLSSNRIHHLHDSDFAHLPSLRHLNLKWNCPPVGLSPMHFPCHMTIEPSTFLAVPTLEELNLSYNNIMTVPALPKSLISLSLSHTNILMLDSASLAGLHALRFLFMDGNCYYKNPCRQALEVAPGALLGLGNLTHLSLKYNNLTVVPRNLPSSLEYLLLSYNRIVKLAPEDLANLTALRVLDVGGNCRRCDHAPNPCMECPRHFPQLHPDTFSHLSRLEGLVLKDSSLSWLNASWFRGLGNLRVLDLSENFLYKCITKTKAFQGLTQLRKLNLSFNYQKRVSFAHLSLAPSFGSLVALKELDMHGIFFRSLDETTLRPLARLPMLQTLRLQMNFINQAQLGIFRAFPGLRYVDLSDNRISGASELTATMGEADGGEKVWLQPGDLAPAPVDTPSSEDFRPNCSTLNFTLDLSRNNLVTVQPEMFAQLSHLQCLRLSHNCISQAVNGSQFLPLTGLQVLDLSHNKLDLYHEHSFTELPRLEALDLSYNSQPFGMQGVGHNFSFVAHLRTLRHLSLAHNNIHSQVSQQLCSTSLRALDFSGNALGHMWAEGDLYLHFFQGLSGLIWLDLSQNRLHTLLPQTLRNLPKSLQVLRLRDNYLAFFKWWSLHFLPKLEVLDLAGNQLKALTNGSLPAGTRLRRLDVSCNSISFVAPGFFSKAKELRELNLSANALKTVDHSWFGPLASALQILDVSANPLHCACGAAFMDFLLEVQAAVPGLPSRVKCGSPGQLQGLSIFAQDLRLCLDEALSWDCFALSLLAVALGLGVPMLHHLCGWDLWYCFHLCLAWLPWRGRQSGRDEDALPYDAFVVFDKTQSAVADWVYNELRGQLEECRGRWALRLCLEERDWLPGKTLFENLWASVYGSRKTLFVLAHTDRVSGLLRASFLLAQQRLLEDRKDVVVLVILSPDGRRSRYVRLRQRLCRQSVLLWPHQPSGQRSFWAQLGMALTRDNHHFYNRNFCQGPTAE
# Summary of the method: as §1
Structure (SMILES),pIC50 (human TLR7),pIC50 (human TLR8),pIC50 (human TLR9)
"Cc1cc(-c2[nH]c3ccc(C4CCNCC4)cc3c2C(C)C)cn(CC(F)(F)F)c1=O [Example 45, 5-(3-isopropyl-5-(piperidin-4-yl)-1H-indol-2-yl)-3-methyl-1-(2,2,2-trifluoroethyl)pyridin-2(1H)-one]",7.89,7.32,5.33
"COc1ncccc1-c1cc(-c2[nH]c3ccc(C4CCNCC4)cc3c2C(C)C)cn(C)c1=O [Example 57, 5-(3-isopropyl-5-(piperidin-4-yl)-1H-indol-2-yl)-2′-methoxy-1-methyl[3,3′-bipyridin]-2(1H)-one]",7.16,7.09,5.87
"CCCN1CCC(c2ccc3[nH]c(-c4cc(-c5cncc(C)c5)c(=O)n(C)c4)c(C(C)C)c3c2)CC1 [Example 332, 5-(3-isopropyl-5-(1-propylpiperidin-4-yl)-1H-indol-2-yl)-1,5′-dimethyl-[3,3′-bipyridin]-2(1H)-one]",8.31,8.96,6.10
"CC(C)c1c(-c2cc(-c3cncnc3)c(=O)n(C)c2)[nH]c2ccc(C3CCN(C(C)C)CC3)cc12 [Example 244, 5-(3-isopropyl-5-(1-isopropylpiperidin-4-yl)-1H-indol-2-yl)-1-methyl-3-(pyrimidin-5-yl)pyridin-2(1H)-one]",8.22,8.74,6.02
"CNC(=O)CN1CCC(c2ccc3[nH]c(-c4cc(C#N)c(=O)n(C)c4C)c(C(C)C)c3c2)CC1 [Example 144, 2-(4-(2-(5-cyano-1,2-dimethyl-6-oxo-1,6-dihydropyridin-3-yl)-3-isopropyl-1H-indol-5-yl)piperidin-1-yl)-N-methylacetamide]",7.22,8.33,4.94
"Cc1c(-c2[nH]c3ccc(C4CCN(C(=O)CN(C)C)CC4)cc3c2C(C)C)cn(C)c(=O)c1Cl [Example 278, 3-chloro-5-(5-(1-(dimethylglycyl)piperidin-4-yl)-3-isopropyl-1H-indol-2-yl)-1,4-dimethylpyridin-2(1H)-one]",8.28,7.68,5.49
"CCCN1CCC(c2ccc3[nH]c(-c4cn(C)c(=O)c(-c5cnn(C)c5)c4C)c(C(C)C)c3c2)CC1 [Example 333, 5-(3-isopropyl-5-(1-propylpiperidin-4-yl)-1H-indol-2-yl)-1,4-dimethyl-3-(1-methyl-1H-pyrazol-4-yl)pyridin-2(1H)-one]",7.04,7.95,5.52
"CC(C)c1c(-c2cc(F)c(=O)n(C)c2)[nH]c2ccc(C3CCNCC3)cc12 [Example 13, 3-fluoro-5-(3-isopropyl-5-(piperidin-4-yl)-1H-indol-2-yl)-1-methylpyridin-2(1H)-one]",7.74,7.47,6.23
"Cc1c(-c2[nH]c3ccc(C4CCN(C(=O)C(F)(F)F)CC4)cc3c2C(C)C)cn(C)c(=O)c1Cl [Example 302, 3-chloro-5-(3-isopropyl-5-(1-(2,2,2-trifluoroacetyl)piperidin-4-yl)-1H-indol-2-yl)-1,4-dimethylpyridin-2(1H)-one]",7.69,6.67,≤ 4.30

# The next lines start with the values.
pIC50 (human TLR7),pIC50 (human TLR8),pIC50 (human TLR9),Structure (SMILES)
8.00,7.87,5.23,"Cc1cc(-c2[nH]c3ccc(C4CCN(CC5CC5)CC4)cc3c2C(C)C)cn(C)c1=O [Example 223, 5-(5-(1-(cyclopropylmethyl)piperidin-4-yl)-3-isopropyl-1H-indol-2-yl)-1,3-dimethylpyridin-2(1H)-one]"
8.36,8.33,4.70,"Cc1cc(-c2[nH]c3ccc(C4CCN(CCC#N)CC4)cc3c2C(C)C)cn(C)c1=O [Example 76, 3-(4-(2-(1,5-dimethyl-6-oxo-1,6-dihydropyridin-3-yl)-3-isopropyl-1H-indol-5-yl)piperidin-1-yl)propanenitrile]"
7.07,7.52,6.18,"Cc1nc(-c2[nH]c3ccc(C4CCN(C5CCCOC5)CC4)cc3c2C(C)C)cn(C)c1=O (stereo not drawn) [Example 187, 5-(3-isopropyl-5-(1-(tetrahydro-2H-pyran-3-yl)piperidin-4-yl)-1H-indol-2-yl)-1,3-dimethylpyrazin-2(1H)-one]"
7.99,8.20,5.53,"Cc1cc(-c2[nH]c3ccc(C4CCN(C5CCOCC5)CC4)cc3c2C(C)C)nn(C)c1=O [Example 194, 6-(3-isopropyl-5-(1-(tetrahydro-2H-pyran-4-yl)piperidin-4-yl)-1H-indol-2-yl)-2,4-dimethylpyridazin-3(2H)-one]"
8.42,8.15,4.98,"CC(C)c1c(-c2cc(Cl)c(=O)n(C)c2)[nH]c2ccc(C3CCN(C4CCOCC4)CC3)cc12 [Example 226, 3-chloro-5-(3-isopropyl-5-(1-(tetrahydro-2H-pyran-4-yl)piperidin-4-yl)-1H-indol-2-yl)-1-methylpyridin-2(1H)-one]"
